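Where inhibition never reached the appropriate level, the endpoint shown equals the highest concentration tested. Otherwise, values were interpolated linearly from a five-concentration, 48-hour dose response in 96-well plates. Definition used: TGI = concentration required for complete inhibition of growth.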
How the values were obtained:
Assay in all cases: NCI tumour cell line growth inhibition, 48 h
[1] = test system: U251 CNS
[2] = test system: HL-60(TB) leukemia
[3] = test system: DU-145 prostate
[4] = test system: NCI/ADR-RES ovarian
[5] = test system: MDA-N
[6] = test system: MALME-3M melanoma
[7] = test system: SF-295 CNS
[8] = test system: HCT-15 colon
[9] = test system: SK-MEL-5 melanoma
[10] = test system: K-562 leukemia
[11] = test system: NCI-H226 lung
[12] = test system: PC-3 prostate
[13] = test system: COLO 205 colon
[14] = test system: HT29 colon
[15] = test system: T-47D breast
[16] = test system: SF-268 CNS
[17] = test system: SR leukemia
[18] = test system: M14 melanoma
[19] = test system: SK-MEL-28 melanoma

SMILES	TGI [1]	TGI [2]	TGI [3]	TGI [4]	TGI [5]	TGI [6]	TGI [7]	TGI [8]	TGI [9]	TGI [10]	TGI [11]	TGI [12]	TGI [13]	TGI [14]	TGI [15]	TGI [16]	TGI [17]	TGI [18]	TGI [19]
O=c1[nH]c(-c2ccccc2)nc2c1sc1nc3ccccc3n12	> 100 µM	> 100 µM	> 100 µM	> 100 µM	> 100 µM	> 100 µM	> 100 µM	> 100 µM	> 100 µM	> 100 µM	> 100 µM	> 100 µM	> 100 µM	> 100 µM	> 100 µM	> 100 µM	> 100 µM	> 100 µM	> 100 µM
Cn1c(=O)c2c(ncn2CCCCOc2ccc3c(c2)[n+]([O-])nc(N)[n+]3[O-])n(C)c1=O	91.8 µM	> 100 µM	> 100 µM	> 100 µM	> 100 µM	> 100 µM	> 100 µM	> 100 µM	22.1 µM	> 100 µM	79.6 µM	> 100 µM	43.2 µM	> 100 µM	12.1 µM	> 100 µM	> 100 µM	> 100 µM	> 100 µM
COc1cccc(C2SCC(=O)N2c2ccc(-n3c(-c4ccccc4)nc4ccccc4c3=O)cc2)c1OC (stereo not given)	> 100 µM	> 100 µM	> 100 µM	> 100 µM	> 100 µM	> 100 µM	> 100 µM	> 100 µM	> 100 µM	> 100 µM	> 100 µM	> 100 µM	> 100 µM	> 100 µM	> 100 µM	> 100 µM	> 100 µM	> 100 µM	> 100 µM
COc1ccc(C(=O)/C=C/c2cccnc2)cc1OC	16.7 µM	6.01 µM	27.8 µM	36.5 µM	25.6 µM	28.5 µM	26.3 µM	23.9 µM	27.4 µM	43.8 µM	24.8 µM	28 µM	22.9 µM	15.2 µM	22 µM	26.7 µM	6.02 µM	26.6 µM	33.1 µM
CCCCOCCOC1=CC(=O)c2c(O)ccc(O)c2C1=O	3.07 µM	2.99 µM	3.17 µM	4.74 µM	0.341 µM	0.738 µM	3.02 µM	–	0.422 µM	> 10 µM	3.14 µM	6.69 µM	2.36 µM	3.12 µM	4.03 µM	3.65 µM	5.11 µM	2.18 µM	3 µM
COC(=O)C1CCC(=O)N1C(c1ccccc1)c1cc(OC)c(OC)c(OC)c1 (stereo not given)	> 100 µM	57.8 µM	> 100 µM	> 100 µM	58.8 µM	> 100 µM	> 100 µM	> 100 µM	–	49.9 µM	> 100 µM	> 100 µM	> 100 µM	> 100 µM	> 100 µM	> 100 µM	> 100 µM	> 100 µM	> 100 µM
CC(C)(C)[Si](C)(C)OCCOCn1cc(F)c(=O)[nH]c1=O	> 100 µM	> 100 µM	> 100 µM	> 100 µM	> 100 µM	> 100 µM	> 100 µM	> 100 µM	> 100 µM	> 100 µM	> 100 µM	> 100 µM	> 100 µM	> 100 µM	> 100 µM	> 100 µM	> 100 µM	> 100 µM	–
